According to patent US4233224A, “Coriolin derivatives” (priority 1978, dated 1980):
In brackets after ≈: the same amount, converted by molar mass. Read-outs that look alike come from different tables or passages of the source.

Experiments:
[1] = test system: HeLa S3 cells; assay: cells; assay type: cell-based; conditions: for inhibition at 1 µg/mL: 1 μg/ml; for inhibition at 2 µg/mL: 2 μg/ml
Method: The HeLa S3 cells were scattered in a plastic laboratory dish, 6 cm in diameter, at the rate of 0.7×10^5 cells/plate by using as a medium an Eagle's MEM (Minimum Essential Medium) [Science, 30, 432-437 (1959)] containing 60 μg/ml of kanamycin and 10% calf serum. On the 2nd day, the medium was removed and a measured quantity of the compound of this invention was added together with a fresh serum-impregnated Eagle's MEM. The cell population at this time was 1.58×10^5 cells/plate. After adding the compound (I) of this invention thereto, cultures were grown for 3 days and then the medium was removed, followed by washing with physiological saline, treatment with 0.05% trypsin at room temperature for about 15 minutes and pipetting to disperse the cells. The cell number was counted by a counter and percent inhibition (%) was calculated from the number of the control cells (to which no compound was added) to determine […]. [formula]

[2] = test system: L-1210 (lymphatic leukemia strain); assay: Life-prolonging effect in cancer (L-1210) affected mice; assay type: in vivo, mouse (BDF1); conditions: once a day for 10 days, from 24 hours after intraperitoneal inoculation of 1×10^5 L-1210 cells, BDF1 mice, compared with control group
Method: The L-1210 cells (1×10^5, 0.05 ml) were inoculated into the BDF1 mouse abdorminal cavities (BDF1 means a strain name of mouse), and after lapse of 24 hours, a measured amount of preparation (suspended in 0.5% CMC aqueous solution) was administered once a day for a period of 10 days.
The mice were observed till death, and by comparing the average number of surviving days of the tested mice with that of the control group (to which a 0.5% CMC aqueous solution alone was given), the life prolongation rate was calculated from the following formula: [drawing 17]

[3] = test system: HeLa S3 cells; assay: cells; assay type: cell-based; conditions: Homo sapiens, 72 h, 3 days, read-out: ID50 (the source's name)
[4] = known coriolin type compounds; J. Antibiotics, Tetrahedron Letters; cited from earlier work
[5] = Homo sapiens, 72 h, HeLa S3 cells, 3 days, read-out: Percent inhibition
[6] = Homo sapiens, HeLa S3, 72 h, read-out: Percent inhibition
[7] = Homo sapiens, 72 h, 0.5 μg/ml, HeLa S3 cells, 3 days, read-out: Percent inhibition

IC50 [3] [µg/mL]	Compound	inhibition at 1 µg/mL [1, 5] [%]	Life-prolonging effect (life prolongation rate) ([2]; dose 12.5 μg/mouse × 10) [%]	Life-prolonging effect (life prolongation rate) ([2]; dose 25 μg/mouse × 10) [%]	Life-prolonging effect (life prolongation rate) ([2]; dose 50 μg/mouse × 10) [%]	Life-prolonging effect (life prolongation rate) ([2]; dose 100 μg/mouse × 10) [%]	Life-prolonging effect (life prolongation rate) ([2]; dose 200 μg/mouse × 10) [%]	anti-tumor activity (in words) [4]	further results
1.1 (≈ 2.32 µM)	C=C1CC2(OC1=O)[C@H]1O[C@]13[C@@H](O)[C@H]1CC(C)(C)[C@H](OC(=O)CCCCCCC)[C@H]1[C@]3(C)[C@]21CO1 (stereo partly drawn) [III, 1α-octanoyl-4β,15:6β,7β-dioxide-5(19-methylene-18-butanolide)-8β-hydroxy-hirsutane]	42.9	106	127	141	148	148		inhibition at 2 µg/mL [1, 5]: 96.6%; Life-prolonging effect (life prolongation rate) ([2]; dose 6 μg/mouse × 10): 99%
	C=C1CC2(OC1=O)[C@H]1O[C@]13C1(CC(=C)C(=O)O1)[C@H]1CC(C)(C)[C@H](OC(=O)CCCCCCC)[C@H]1[C@]3(C)[C@]21CO1 (stereo partly drawn) [V, 1α-octanoyl-4β,15:6β,7β-dioxide-5(19-methylene-18-butanolide)-8(22-methylene-21-butanolide)hirsutane]					99	120		IC50 ([1]; Homo sapiens, HeLa S3, 72 h, read-out: ID50): 0.47 µg/mL (≈ 0.869 µM); inhibition at 0.25 µg/mL [1, 6]: 22.4%; inhibition at 0.5 µg/mL [1, 6]: 56.9%
	CCCCCCCC(=O)O[C@@H]1[C@@H]2[C@H](CC1(C)C)C(=O)[C@@]13O[C@@H]1C(=O)[C@@]1(CO1)[C@@]23C [5,8-dehydrocoriolin B]							having an anti-tumor activity	
0.76 (≈ 1.87 µM)	CCCCCCCC(=O)O[C@@H]1[C@@H]2[C@H](CC1(C)C)[C@H](O)[C@@]13O[C@@H]1C(=O)[C@@]1(CO1)[C@@]23C [5-dehydrocoriolin B VI, 5-dehydrocoriolin B, reference compound]	77.6	138	137	144			having an anti-tumor activity	inhibition at 0.5 µg/mL [1, 7]: 20%; Life-prolonging effect (life prolongation rate) ([2]; dose 6 μg/mouse × 10): 106%
	coriolin C							having an anti-tumor activity	
0.6 (≈ 1.27 µM)	C=C1CC2(OC1=O)[C@H]1O[C@]13C(=O)[C@H]1CC(C)(C)[C@H](OC(=O)CCCCCCC)[C@H]1[C@]3(C)[C@]21CO1 (stereo partly drawn) [IV, 1α-octanoyl-4β,15:6β,7β-dioxide-5(19-methylene-18-butanolide)-8-oxo-hirsutane]	71.6	99	113	106	127	127		inhibition at 0.5 µg/mL [1, 7]: 43.3%
2.1 (≈ 4.42 µM)	C=C1CC2(OC1=O)[C@H]1CC(C)(C)[C@H](OC(=O)CCCCCCC)[C@H]1[C@]1(C)[C@]3(CO3)[C@@H](O)[C@H]3O[C@@]321 (stereo partly drawn) [I, 1α-octanoyl-4β, 15:6β,7β-dioxide-5β-hydroxy-8(22-methylene-21-butanolide)hirsutane]				96	111	130		inhibition at 2 µg/mL [1, 5]: 48%; inhibition at 4 µg/mL ([1]; Homo sapiens, 72 h, 4 μg/ml, HeLa S3 cells, 3 days, read-out: Percent inhibition): 76.2%
	coriolin							having an anti-tumor activity	

Compound	IC50 [3] [µg/mL]	inhibition at 1 µg/mL [1, 5] [%]	Life-prolonging effect (life prolongation rate) ([2]; dose 12.5 μg/mouse × 10) [%]	Life-prolonging effect (life prolongation rate) ([2]; dose 25 μg/mouse × 10) [%]	Life-prolonging effect (life prolongation rate) ([2]; dose 50 μg/mouse × 10) [%]	Life-prolonging effect (life prolongation rate) ([2]; dose 100 μg/mouse × 10) [%]	Life-prolonging effect (life prolongation rate) ([2]; dose 200 μg/mouse × 10) [%]	anti-tumor activity (in words) [4]	further results
C=C1CC2(OC1=O)[C@H]1CC(C)(C)[C@H](OC(=O)CCCCCCC)[C@H]1[C@]1(C)[C@]3(CO3)C(=O)[C@H]3O[C@@]321 (stereo partly drawn) [II, 1α-octanoyl-4β,15:6β,7β-dioxide-5-oxo-8(22-methylene-21-butanolide)hirsutane]	0.12 (≈ 0.254 µM)								inhibiting growth of the HeLa S3 cells (in words) ([1]; HeLa S3 cells): works marvelously in preventing growth of the cancerous cells; inhibition at 0.1 µg/mL ([1]; Homo sapiens, 72 h, 0.1 μg/ml, HeLa S3 cells, 3 days, read-out: Percent inhibition): 40.2%; inhibition at 0.2 µg/mL ([1]; Homo sapiens, 72 h, 0.2 μg/ml, HeLa S3 cells, 3 days, read-out: Percent inhibition): 83.2%; toxicity (in words) ([1]; stated with ID50, HeLa S3 cells): extremely low in toxicity
